Results: patent US10238642B2, “Methods for treating neurogenic orthostatic hypotension” (Theravance Biopharma R&D IP, LLC, priority 2016, dated 2019)
pEC50: −log10 of the molar value.

Legend:
[1] = biological target: CYP2D6 (Homo sapiens, UniProt P10635); details: cited from earlier work
[2] = system: rat native NET; assay: [3H]-NE uptake inhibition in rat cortical synaptosomes; type: biochemical
Excerpt: (§1) The in vitro pharmacology of 4-[2-(2,4,6-trifluorophenoxymethyl)phenyl]-piperidine at human recombinant and rat native monoamine transporters was characterized as described in Smith et al., Inter. J. Neuropsychopharmcol. (2015) 1-11; and Tsuruda et al., J. Pharmacol. Toxicol. Meth. (2010) 61:192-204. See also, e.g., U.S. Pat. No. 8,304,432 B2 and U.S. Pat. No. 8,304,433 B2. Radioligands were sourced commercially (Perkin Elmer LifeSciences or GE Healthcare Life Sciences).
(§2) Briefly, membranes prepared from HEK293 (Human Embryonic Kidney 293) or CHO-K1 (Chinese Hamster Ovary-K1) cells stably transfected with human recombinant SERT (HEK293-hSERT), NET (HEK293-hNET), or DAT (CHO-KT-hDAT) were incubated for 1 hr at 22° C. in the absence, or presence, of 4-[2-(2,4,6-trifluorophenoxymethyl)phenyl]piperidine and [^3H]-citalopram (1.0 nM) for SERT, [^3H]-nisoxetine (2.0 nM) for NET, and [^3H]-WIN35428 (3.0 nM) for DAT in 50 mM Tris-HCl, 120 mM NaCl, 5 mM KCl, 0.025% BSA, 100 μM ascorbic acid, pH 7.4. Rat cortical membrane preparations were incubated with [^3H]-citalopram (2.0 nM) for SERT or [3H]-nisoxetine (4.0 nM) for NET for 1 hr at 22° C. […] Binding and uptake assays were terminated by rapid filtration and radioactivity determined by liquid scintillation spectroscopy.

[3] = biological target: NET (Rattus norvegicus, UniProt Q9WTR4); assay: Ex vivo transporter occupancy in rat spinal cord (PK/PD model), NET; details: estimate (% CV)
NET, sequence (Q9WTR4 1-597): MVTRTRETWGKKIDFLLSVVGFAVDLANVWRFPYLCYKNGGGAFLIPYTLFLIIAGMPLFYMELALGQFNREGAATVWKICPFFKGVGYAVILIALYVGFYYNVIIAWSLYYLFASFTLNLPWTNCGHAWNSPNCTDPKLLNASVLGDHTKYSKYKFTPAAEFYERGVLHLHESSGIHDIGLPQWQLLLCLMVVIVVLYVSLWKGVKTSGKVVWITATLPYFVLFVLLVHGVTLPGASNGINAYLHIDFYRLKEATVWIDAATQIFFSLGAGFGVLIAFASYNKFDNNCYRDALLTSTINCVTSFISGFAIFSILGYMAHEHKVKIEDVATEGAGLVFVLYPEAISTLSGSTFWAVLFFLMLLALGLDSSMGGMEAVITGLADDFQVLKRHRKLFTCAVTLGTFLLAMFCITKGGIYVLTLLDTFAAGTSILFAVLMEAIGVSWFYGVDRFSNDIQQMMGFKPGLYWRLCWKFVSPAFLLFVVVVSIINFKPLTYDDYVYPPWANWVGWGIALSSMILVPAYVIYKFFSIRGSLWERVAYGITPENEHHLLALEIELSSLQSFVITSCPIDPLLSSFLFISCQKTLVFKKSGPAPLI
Protocol: (§3) Adult male Sprague Dawley rats (Charles River) were housed under controlled laboratory conditions (temperature at 21±1° C.) on a 12:12 hour light-dark cycle. Animals were given free access to food and water upon arrival to the facility and animals were acclimatized to their holding room for at least 48 hours. Animals were fasted but allowed free access to water for 15-18 hours prior to dosing.
(§4) Rats (n=6/timepoint/dose level) received a single oral dose of 4-[2-(2,4,6-trifluorophenoxymethyl)phenyl]piperidine (0.3, 1, 5, 10, 30, and 60 mg/kg) and were euthanized by decapitation at specified time points (0.5, 2, 4, 6, and 8 hr for 5 mg/kg dose level; 2 hr for 0.3, 1, 10, 30, and 60 mg/kg dose levels) post-administration. Spinal cords were dissected for ex vivo transporter occupancy and PK assessments from the same animals. The spinal cord was harvested by hydraulic extrusion using phosphate-buffered saline, and the lumbar segment dissected and frozen on dry ice. The remaining spinal cord segments were collected and homogenized in water (25% w/w) for PK analysis. All samples were stored at −80° C. until analysis.
(§5) A kinetic radioligand binding assay was used to determine NET and SERT occupancy in rat spinal cord, as described previously in Bourdet et al., J. Pharm. Exp. Ther. (2012) 341:137-145. PK/PD parameters were estimated by a compartmental modeling approach (WinNonlin Version 5.0.1, Pharsight Corporation). One- and two-compartment PK models with first-order absorption and elimination were evaluated. The one-compartment model was selected. The pharmacodynamics model was an effect compartment Emax model linked directly to the central PK compartment (WinNonlin PK Model 3, PD Model 101). Selection of models was based upon best fit in terms of visual inspection, Akaike Information Criteria, and weighted residual sum of squares using the Gauss-Newton minimization method.

[4] = biological target: T1, rat native NET (Rattus norvegicus, UniProt Q9WTR4); assay: [3H]-nisoxetine radioligand binding, rat cortical membranes; details: mean (95% confidence intervals), read-out: Transporter Binding: pKi, NET (converted)
T1 construct: other: Rat cortical membranes; mean (95% confidence intervals)
T1 sequence (Q9WTR4 1-597): as above
Excerpt: as §1, §2

[5] = Plasma protein binding, rat; type: in vitro ADME
[6] = biological target: CYP3A4 (Homo sapiens, UniProt P08684); details: cited from earlier work
CYP3A4, sequence (P08684 whole entry): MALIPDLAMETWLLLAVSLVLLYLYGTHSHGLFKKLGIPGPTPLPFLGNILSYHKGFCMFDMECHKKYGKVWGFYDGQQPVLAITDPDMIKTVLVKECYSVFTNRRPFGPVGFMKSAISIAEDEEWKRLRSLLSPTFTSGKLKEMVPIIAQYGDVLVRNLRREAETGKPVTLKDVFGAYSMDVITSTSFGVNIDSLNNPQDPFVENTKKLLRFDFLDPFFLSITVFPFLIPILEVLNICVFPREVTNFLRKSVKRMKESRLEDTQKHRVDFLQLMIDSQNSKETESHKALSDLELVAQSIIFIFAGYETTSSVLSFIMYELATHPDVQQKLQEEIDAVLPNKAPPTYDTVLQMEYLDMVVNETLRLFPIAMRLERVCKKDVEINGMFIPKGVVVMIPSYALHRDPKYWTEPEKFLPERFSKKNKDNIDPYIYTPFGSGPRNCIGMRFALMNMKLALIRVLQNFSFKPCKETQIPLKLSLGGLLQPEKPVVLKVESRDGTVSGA

[7] = biological target: T2, SERT (Rattus norvegicus, UniProt P31652); assay: Ex vivo transporter occupancy in rat spinal cord (PK/PD model), SERT
T2 construct: Spinal cords were dissected for ex vivo transporter occupancy and PK assessments from the same animals; from tissue; host or cells: lumbar spinal cord of orally dosed male Sprague Dawley rats
T2 sequence (P31652 whole entry): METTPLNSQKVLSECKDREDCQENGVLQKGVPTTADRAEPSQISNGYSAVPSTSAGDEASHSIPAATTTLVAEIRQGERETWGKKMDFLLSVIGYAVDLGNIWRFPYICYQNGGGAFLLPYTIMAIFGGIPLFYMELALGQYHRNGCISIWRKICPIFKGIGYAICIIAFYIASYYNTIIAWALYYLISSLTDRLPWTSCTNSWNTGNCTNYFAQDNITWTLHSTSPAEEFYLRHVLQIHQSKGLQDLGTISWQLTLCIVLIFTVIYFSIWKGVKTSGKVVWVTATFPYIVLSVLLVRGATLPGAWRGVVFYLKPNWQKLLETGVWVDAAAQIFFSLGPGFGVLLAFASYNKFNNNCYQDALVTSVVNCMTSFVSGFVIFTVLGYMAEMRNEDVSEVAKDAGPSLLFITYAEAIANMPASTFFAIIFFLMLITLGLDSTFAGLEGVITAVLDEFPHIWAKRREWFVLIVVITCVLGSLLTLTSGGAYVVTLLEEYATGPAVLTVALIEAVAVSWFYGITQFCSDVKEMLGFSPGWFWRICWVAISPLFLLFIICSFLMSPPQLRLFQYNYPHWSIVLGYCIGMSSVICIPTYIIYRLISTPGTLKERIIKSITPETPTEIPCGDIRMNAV
Protocol: as §3, §4
A kinetic radioligand binding assay was used to determine NET and SERT occupancy in rat spinal cord, as described previously in Bourdet et al., J. Pharm. Exp. Ther. (2012) 341:137-145. […] One- and two-compartment PK models with first-order absorption and elimination were evaluated. […]

[8] = biological target: T3, human recombinant NET (Homo sapiens, UniProt P23975); assay: [3H]-NE neurotransmitter uptake inhibition in HEK293-hNET cells; type: cell-based; details: human transporters
T3 construct: expressed in transfected cells; host or cells: HEK293
T3 sequence (P23975 whole entry): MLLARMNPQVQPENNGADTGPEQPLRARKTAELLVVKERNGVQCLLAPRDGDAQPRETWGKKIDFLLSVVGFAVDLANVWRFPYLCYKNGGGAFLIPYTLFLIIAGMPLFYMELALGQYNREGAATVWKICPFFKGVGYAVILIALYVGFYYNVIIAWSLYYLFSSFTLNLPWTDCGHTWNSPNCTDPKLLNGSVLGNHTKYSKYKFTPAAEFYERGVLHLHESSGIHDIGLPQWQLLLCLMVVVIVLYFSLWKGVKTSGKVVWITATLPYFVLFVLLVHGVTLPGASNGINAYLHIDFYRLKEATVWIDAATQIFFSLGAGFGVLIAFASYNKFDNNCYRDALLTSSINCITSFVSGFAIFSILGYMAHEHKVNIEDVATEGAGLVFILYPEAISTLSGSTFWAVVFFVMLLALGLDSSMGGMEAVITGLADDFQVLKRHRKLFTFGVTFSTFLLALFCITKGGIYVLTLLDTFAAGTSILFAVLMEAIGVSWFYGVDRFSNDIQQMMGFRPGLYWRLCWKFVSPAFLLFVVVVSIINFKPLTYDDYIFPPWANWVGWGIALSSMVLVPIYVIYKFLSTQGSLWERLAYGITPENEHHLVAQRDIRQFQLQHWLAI
Excerpt: as §1, §2

[9] = Plasma protein binding, human; type: in vitro ADME
[10] = Rat oral pharmacokinetics, one-compartment model; type: in vivo; details: estimate (% CV)
Protocol: as §3, §4, §5

CYP2D6, sequence (P10635 whole entry): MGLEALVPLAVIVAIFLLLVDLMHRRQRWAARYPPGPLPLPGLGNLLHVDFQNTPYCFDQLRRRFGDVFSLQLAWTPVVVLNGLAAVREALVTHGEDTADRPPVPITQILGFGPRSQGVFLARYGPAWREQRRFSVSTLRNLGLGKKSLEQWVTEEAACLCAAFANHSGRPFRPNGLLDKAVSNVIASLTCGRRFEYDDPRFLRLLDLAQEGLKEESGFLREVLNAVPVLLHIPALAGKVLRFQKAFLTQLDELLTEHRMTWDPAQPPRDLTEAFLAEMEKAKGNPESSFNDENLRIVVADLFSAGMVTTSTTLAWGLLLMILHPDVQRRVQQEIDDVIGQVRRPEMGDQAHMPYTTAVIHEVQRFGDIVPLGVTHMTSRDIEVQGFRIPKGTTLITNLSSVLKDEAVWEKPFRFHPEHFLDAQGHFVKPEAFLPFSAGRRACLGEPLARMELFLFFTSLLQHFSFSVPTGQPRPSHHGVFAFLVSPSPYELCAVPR

Fc1cc(F)c(OCc2ccccc2C2CCNCC2)c(F)c1 [4-[2-(2,4,6-trifluorophenoxymethyl)phenyl]piperidine]
reduction of metabolism by chemical inhibition of CYP2D6 [1]: 7%
apparent functional selectivity for NET over SERT [2]: 10 fold
Emax (% occupancy), NET ([3]; rat spinal cord, single oral dose): 92.0 (19) % occupancy
pEC50 ([3]; rat spinal cord): 7.44
keo (first-order equilibration rate constant), NET ([3]; rat): 1.78 (57) hr^−1
Ki [4]: 0.002 µM
fraction unbound [5]: 0.098
reduction of metabolism by chemical inhibition of CYP3A4 [6]: 34%
pEC50 ([7]; projected from rat, accounting for species differences in plasma protein binding): 7.13
keo (first-order equilibration rate constant), SERT ([7]; rat, estimate (% CV)): 11.0 (86) hr^−1
higher potency for inhibition of NET over SERT [8]: 4 fold
fraction unbound [9]: 0.209
V/F (volume of the central compartment divided by oral bioavailability) [10]: 54.8 (66) L/kg
k01 (first-order absorption rate constant) [10]: 0.777 (108) hr^−1
k10 (elimination rate constant from the central compartment) [10]: 0.319 (81) hr^−1
